Source: PMC5979466, “Allosteric Activation of GDP-Bound Ras Isoforms by Bisphenol Derivative Plasticisers” (International Journal of Molecular Sciences, 2018)
Where two headings read alike, the source gives them in different places. Values belong to the compound of their own block, whether it stands above or below them.

Assays:
K-Ras4B bound to GDP [1] = biological target: T1, K-Ras4B bound to GDP (Homo sapiens, UniProt P01116); assay: NMR titration (1H-15N HSQC chemical shift perturbation) of GDP-bound K-Ras4B; assay type: binding
T1 construct: made in house; host or cells: E. coli
Method: The NMR titration experiments, resonance assignments, and data handling were performed as previously published. Spectra were acquired on Bruker DRX 600 and AVANCE III HD 700 spectrometers, except for ^19F NMR spectra that were recorded on a Bruker DPX 250 spectrometer at 235 MHz. The reference experiment for the competitive titration of ^14N SOS^cat and BPAF to ^15N-enriched GDP-bound K-Ras4B was acquired in the presence of 0.2 mM BPAF in PBS at pH 7.4.

GDP-bound K-Ras4B = biological target: T2, GDP-bound K-Ras4B (Homo sapiens, UniProt P01116); assay: Shift of Y157 amide NMR resonance towards active GppNHp-bound state; assay type: binding; conditions: saturated ligand-protein complex
T2 construct: made in house; host or cells: E. coli
Method: (§1) The NMR titration experiments, resonance assignments, and data handling were performed as previously published. Spectra were acquired on Bruker DRX 600 and AVANCE III HD 700 spectrometers, except for ^19F NMR spectra that were recorded on a Bruker DPX 250 spectrometer at 235 MHz. The reference experiment for the competitive titration of ^14N SOS^cat and BPAF to ^15N-enriched GDP-bound K-Ras4B was acquired in the presence of 0.2 mM BPAF in PBS at pH 7.4. Upon titration of ^14N SOS^cat to a 0.4 mM sample of GDP-bound ^15N-enriched K-Ras4B, line broadening and/or disappearance of NMR resonances for GDP-loaded K-Ras4B bound to SOS^cat is observed probably due to rotational correlation effects of the approx. 80 kDa protein-protein complex. Line broadening can already be detected in 2D ^1H-^15N HSQC spectra of ^14N SOS^cat:^15N-enriched GDP-bound K-Ras4B at a molar ratio of 1:1, and this effect is more pronounced when extra SOS^cat is added to adjust a molar ratio of 1:2. Addition of an increasing amount of BPAF to the 1:2 ^15N-enriched K-Ras4B/^14N SOS^cat complex (1:2:0.5, 1:2:1, 1:2:4) recovers the backbone amide proton NMR resonances in 2D ^1H-^15N HSQC spectra. The acquired NMR spectrum is similar to the ^15N-enriched GDP-bound K-Ras4B:BPAF ^1H-^15N HSQC spectrum.

Hela cells = assay: MTT cytotoxicity assay; assay type: cell-based; conditions: Homo sapiens, Hela cells exposed for 72 hrs
Method: Hela cells were used to determine IC50 values for different bisphenols. Therefore cells (1100 cells/well) were seeded in 96 well plates. 24 h after seeding cells were treated with individual bisphenols or corresponding DMSO in indicated concentrations up to 72 h. Subsequently, 10 μL of a MTT stock solution (5 mg/mL) were added to each well for 4 h. The mixture was removed carefully via pipetting, and the remaining formazan crystals formed were dissolved by 100 μL DMSO/10% SDS/0.01 M acetic acid for 15 min. The absorbance (570 nm and reference 620 nm) was determined using an absorbance reader and blank values were subtracted. Prism 6 (GraphPad Software, La Jolla, CA, USA) was used to calculate IC50 values.

K-Ras4B [2] = biological target: T3, K-Ras4B (Homo sapiens, UniProt P01116); parameters: made in house; host or cells: E. coli (given for K-Ras4B only); method as in PMID 26867649; conditions: cited from earlier work
H-Ras = biological target: T4, H-Ras (Homo sapiens, UniProt P01112); assay: NMR-based titration of H-Ras; assay type: binding
T4 construct: made in house; host or cells: E. coli

N-Ras (1-170) = biological target: T5, N-Ras (1-170) (Homo sapiens, UniProt P01111); assay: NMR-based titration of N-Ras; assay type: binding
T5 construct: For N-Ras (1-170), we also observed a similar pattern of CSPs; made in house

Rap-1A = biological target: T6, Rap-1A (Homo sapiens, UniProt P62834); assay: NMR titration of Rap-1A; assay type: binding; conditions: up to a BPAF concentration of 5 mM
T6 construct: Rap1A comprising residues 1–170 were expressed in E. coli; made in house; host or cells: E. coli
T6 sequence (P62834 1-170): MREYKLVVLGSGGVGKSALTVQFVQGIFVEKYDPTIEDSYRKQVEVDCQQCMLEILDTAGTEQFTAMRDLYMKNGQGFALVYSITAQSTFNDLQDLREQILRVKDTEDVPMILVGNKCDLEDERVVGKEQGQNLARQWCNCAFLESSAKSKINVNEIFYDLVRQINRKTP

Ras = assay: G-LISA Ras activation assay; assay type: cell-based; conditions: serum-starved HEK293T cells, BPAF 20 µM, 1, 2, 4 h
Method: (§2) G-LISA Ras activation assay was performed as described before. Briefly, HEK293T cells were seeded in 10-cm dishes followed by overnight incubation and afterwards serum-starved for 16 h. Cells were then treated with individual bisphenols (BPAF [20 µM] and BPNH2 [33 µM]) or DMSO (control, Ctrl) in a time-dependent manner (1, 2, 4 h), subsequently lysed and the protein concentration was determined using Precision RedTM Advanced Protein Assay Reagent. Quantitative analysis of active Ras was performed with a G-LISA Ras activation assay (Cytoskeleton, Inc., Denver CO, USA) using 1 mg/mL of the sample. The signal intensity was determined by measuring absorbance at 490 nm using a microplate spectrophotometer. Additionally, these lysates were subjected to western blot analysis in order to determine the activation of ERK and AKT signalling. To test for statistical significance, a two-tailed Student’s t-test was applied using Prism version 5.0 (GraphPad Software, La Jolla, CA, USA).

ERK = assay: Western blot of ERK phosphorylation (pERK/total ERK); assay type: cell-based; conditions: serum-starved HEK293T cells, BPAF 20 µM, BPNH2 33 µM
Method: as §2

AKT kinase = assay: Western blot of AKT phosphorylation (pAKT/total AKT); assay type: cell-based; conditions: serum-starved HEK293T cells, BPAF 20 µM, BPNH2 33 µM
Method: as §2

[3] = biological target: T7, GDP-bound K-Ras4B/SOS^cat complex (Homo sapiens, UniProt P01116); assay: Competitive NMR titration of 15N K-Ras4B with 14N SOScat and ligand; assay type: binding; conditions: BPAF added to 1:2 K-Ras4B/SOScat complex, recovery of resonances
T7 construct: made in house; host or cells: E. coli (given for K-Ras4B only)
Method: as §1

K-Ras4B [4] = biological target: T3, K-Ras4B; assay: GDI (guanine nucleotide dissociation inhibition) assay with mantGppNHp; assay type: biochemical; parameters: made in house; host or cells: E. coli
Method: (§3) The SOS^cat assay was performed as described. Briefly, a solution of 1 µM Ras*mantGDP, 200 µM GDP was mixed with different concentrations of BPNH2 and incubated at 20 °C for 5–10 min. To prevent insolubility of the BPNH2, 5% v/v DMSO was applied. After adding 0.5 µM of SOS^cat, a fluorescence spectrum was recorded with a Perkin Elmer LS50B instrument applying an excitation wavelength of 366 nm and an emission wavelength of 442 nm. The kobs value describing the dissociation rate of the nucleotide is obtained for each BPNH2 concentration from a single exponential fit to the fluorescence time course. The GDI (guanine nucleotide dissociation inhibitor) assay is carried out similar to the SOS^cat assay: Instead of mantGDP, the non-hydrolysable GTP analogue mantGppNHp is used but no SOS^cat is added here. Again, the dissociation of the fluorescent nucleotide from Ras in the presence of various BPNH2 concentrations is detected by the decrease of fluorescence and the time dependence yields the kobs values. A plot of the kobs values versus BPNH2 concentration fitted by a binding isotherm yields the KD value of the BPNH2 complex (Figure 4 and Figure S7).
Supporting Figure 7. GDI assay carried out in triplicate (black, red, green; upper panel): The GDI (guanine nucleotide dissociation inhibitor) assay is carried out similar to the SOScat assay: Instead of mantGDP, the non-hydrolysable GTP analogue mantGppNHp is used but no SOScat is added here. Again, the dissociation of the fluorescent nucleotide from Ras in the presence of various
BPNH2 concentrations is detected by the decrease of fluorescence and the time dependence yields the kobs values. A plot of the kobs values versus BPNH2 concentration fitted by a binding isotherm yields the KD value of the BPNH2 complex (please also refer to […]
MTT cytotoxicity assay (lower four panels): The IC50 values in Hela cells exposed for 72 hrs to BPs were determined as follows: 53.79 […]
(1 picture or pasted object on this page, not shown here)

K-Ras4B [5] = biological target: T3, K-Ras4B; assay: SOScat-catalysed guanine nucleotide exchange assay (mant-GDP fluorescence); assay type: biochemical; parameters: made in house; host or cells: E. coli (given for K-Ras4B only)
Method: as §3

[6] = Solubility of the ligands in the NMR study; conditions: NMR study samples
K-Ras4B bound to GDP [7] = biological target: T1, K-Ras4B bound to GDP; conditions: NMR titration, cited from earlier work
[8] = NMR titration, GDP-bound 15N-enriched K-Ras4B

Kd (K-Ras4B bound to GDP [1]; [8]): > 50000 µM
Structure (SMILES): Oc1ccc(C(F)(F)F)cc1 [AFX, 4-(Trifluoromethyl)phenol, reference compound]

shift of Y157 amide resonance relative to the frequency in the active GppNHp-bound state (GDP-bound K-Ras4B): 49%
Structure (SMILES): CC(C)(c1ccc(O)cc1)c1ccc(O)cc1 [BPA, 2,2-Bis(4-hydroxyphenyl)propane]
IC50 (Hela cells): 53.8 µM
interference with GEF (Sos)-mediated nucleotide exchange from GDP to GTP (K-Ras4B [2]): can interfere

solubility comment [6]: insoluble
Structure (SMILES): CC(c1ccccc1)(c1ccc(O)cc1)c1ccc(O)cc1 [BPAP, 4,4′-(1-Phenylethylidene)bisphenol]

Kd (K-Ras4B bound to GDP [1]; [8]): 6500 µM
Structure (SMILES): CC(c1ccc(O)cc1)c1ccc(O)cc1 [BPE, 1,1-Bis(4-hydroxyphenyl)ethane]

Kd (K-Ras4B bound to GDP [1]; [8]): 14000 µM
Structure (SMILES): Oc1ccc(Cc2ccc(O)cc2)cc1 [BPF, 4,4′-Methylenediphenol]

Kd (K-Ras4B bound to GDP [1]; [8]): 400 µM
shift of Y157 amide resonance relative to the frequency in the active GppNHp-bound state (GDP-bound K-Ras4B): approx. 64%
GDI-effect (inhibition of nucleotide dissociation) (K-Ras4B [4]): significant GDI-effect
Kd (K-Ras4B [4]; mantGppNHp, no SOScat, triplicate, read-out: KD from GDI-assay): 340 ± 20 µM
interference with the SOScat mediated nucleotide exchange (K-Ras4B [5]): interfere
Kd (K-Ras4B [5]; kobs of mGDP dissociation versus ligand concentration, 0.5 µM SOScat, 20 °C, 5% DMSO, read-out: KD from SOScat-assay): 200 ± 100 µM
Structure (SMILES): Nc1cc(C(c2ccc(O)c(N)c2)(C(F)(F)F)C(F)(F)F)ccc1O [BPNH2, 2,2-Bis(3-amino-4-hydroxyphenyl)hexafluoropropane]
IC50 (Hela cells): 33 µM
level of ERK phosphorylation / Ras signalling via c-Raf kinase (ERK): failed to activate
level of phosphorylated AKT kinase (pAKT) (AKT kinase): clearly be detected already after 1 h

Second part, the compound before the results:

Structure (SMILES): Oc1ccc(C(c2ccc(O)cc2)(C(F)(F)F)C(F)(F)F)cc1 [BPAF, 2,2-Bis(4-hydroxyphenyl)hexafluoropropane]
Kd (K-Ras4B bound to GDP [1]; [8]): 350 ± 20 µM
Kd (K-Ras4B bound to GDP [1]; calculated from six binding pocket residues (L6, V9, Y40, L56, T74, G75), Fig. S1): 347 ± 5 µM
Kd (H-Ras): 400 ± 20 µM
Kd (N-Ras (1-170)): 770 ± 20 µM
chemical shift perturbations (CSPs) on titration (Rap-1A): could not be detected
shift of Y157 amide resonance relative to the frequency in the active GppNHp-bound state (GDP-bound K-Ras4B): 58%
IC50 (Hela cells): 17.8 µM
Ras activity (G-LISA) (Ras): significant and time-dependent augmentation of Ras activity
level of ERK phosphorylation / Ras signalling via c-Raf kinase (ERK): increased the level of ERK phosphorylation
level of phosphorylated AKT kinase (pAKT) (AKT kinase): slightly elevated levels of phosphorylated AKT kinase (pAKT) after 2 h
antagonism of the interaction between GDP-bound K-Ras4B and SOScat [3]: can antagonise
GDI-effect (inhibition of nucleotide dissociation) (K-Ras4B [4]): no or only a very small effect
interference with the SOScat mediated nucleotide exchange (K-Ras4B [5]): interfere

Structure (SMILES): CCC(C)(c1ccc(O)cc1)c1ccc(O)cc1 [BPB, 2,2-Bis(4-hydroxyphenyl)butane]
Kd (K-Ras4B bound to GDP [1]; [8]): 3600 µM

Structure (SMILES): Oc1ccc(C(c2ccccc2)(c2ccccc2)c2ccc(O)cc2)cc1 [BPBP, Bis(4-hydroxyphenyl)diphenylmethane]
solubility comment [6]: insoluble

Structure (SMILES): Oc1ccc(C2(c3ccc(O)cc3)c3ccccc3-c3ccccc32)cc1 [BPFL, 4,4′-(9-Fluorenylidene)diphenol]
solubility comment [6]: insoluble

Structure (SMILES): O=S(=O)(c1ccc(O)cc1)c1ccc(O)cc1 [BPS, 4,4′-Sulfonyldiphenol]
shift of Y157 amide resonance relative to the frequency in the active GppNHp-bound state (GDP-bound K-Ras4B): 20%
IC50 (Hela cells): 119 µM
Kd (K-Ras4B bound to GDP [7]; listed as S): 6000 ± 700 µM
Kd (K-Ras4B bound to GDP [7]): 5800 µM
interference with GEF (Sos)-mediated nucleotide exchange from GDP to GTP (K-Ras4B [2]): cannot interfere
